Structures are written as SMILES. Where only a bound is given, the exact number is not on record here.

In general, melting point refers to the temperature, or range, at which the solid turns liquid. In turn, `CCCCCCOC(C)c1ccc(-c2ccc(C(=O)O)cc2)cc1` (single isomer, unassigned; (+)) showed a melting point of 154 °C.

As for `Cc1ccc(-c2cc(OCC(=O)N3CCOCC3)c3c(C(F)(F)F)cccc3n2)cc1`, the melting point came out at 172 °C.

`CNC(=S)NS(=O)(=O)c1cc(CCNC(=O)/C=C/c2ccccn2)ccc1OC` yielded a melting point of 188 °C.

On to `CC(C)N1C(=O)NC(c2cnc3ccccc3c2)c2cc3c(cc21)OCO3` (configuration not stated), for which the melting point lay in the range of 202 to 205 °C.

Take `CC(=O)Oc1ccccc1C(=O)Nc1cc(Cl)cc(Cl)c1`: the melting point fell in the range of 167 to 168 °C.

Molecule `C=CCNc1ccc(C(=O)OC)cc1` displayed a melting point of 71 to 73 °C.

Take `COC(=O)N1CCC(c2ccccc2)C(O)C1` (configuration not stated): the melting point was 139 to 140 °C.

The molecule `CC(C)(Cc1c(C(C)(C)C)c2cc(OCc3ccc4ccccc4n3)ccc2n1Cc1ccc(Cl)cc1)C(=O)O` showed a melting point of 201 to 202 °C.

For the molecule `COc1ccc(-c2cnnc(-c3ccc(C(F)(F)F)cc3F)c2N)cc1`, the melting point fell in the range of 215 to 216 °C.

As to `COc1cccc2c1CCn1cc(-c3ccccc3)nc1C2OC1CCN(C)CC1` (configuration not stated), the melting point stood at 73 °C.

For the molecule `CC(C)(C)c1ccc(Cl)c(C(=O)O)c1`, the melting point lay in the range of 99 to 103 °C.

As to `CC(O)(Cn1ccnc1)c1ccc2c(c1)Cc1ccccc1-2` (configuration not stated), the melting point lay within 183 to 184 °C.

Take `Cc1oc(-c2ccccc2)nc1COc1ccc(CCC2OC(=O)NC2=O)cc1` (configuration not stated): the melting point was 158 to 159 °C.

Consider `Cc1oc(-c2ccccc2)nc1COc1ccc(CCC(C(=O)O)c2c[nH]nc2-c2ccccc2)cc1` (configuration not stated), for which the melting point fell in the range of 104 to 105 °C.

For the molecule `CCOC(=O)C=Cc1ccc([N+](=O)[O-])c(C)c1`, the melting point lay within 90 to 92 °C.

`O=C(O)C1=Cc2cc(S(=O)(=O)Cc3ccccc3)ccc2OC1C(F)(F)F` (configuration not stated): the melting point was 172 to 176 °C.

For the molecule `O=C(Nc1nccs1)c1nc(-c2ccc([N+](=O)[O-])cc2)[nH]c1-c1ccc(CCl)cc1`, the melting point is greater than 280 °C.

In the case of `CS(=O)(=O)c1ccc(/C(=C2\CCN(CCO)C2=O)c2ccc(Cl)cc2)cc1`, the melting point lay in the range of 187 to 188 °C.

`O=C1CC2(CCc3cc4ccccc4n3C2)C(=O)N1` (configuration not stated) displayed a melting point of 208 to 210 °C.

Consider `COc1cc2ncc(C#N)c(Nc3cccc(C(N)=O)c3)c2cc1OC`, for which the melting point fell in the range of 253 to 255 °C.

On to `CCOC(=O)c1cn([C@@H](C)CO)c2c(F)c(N3CCN(C)CC3)c(F)cc2c1=O`, for which the melting point is 195 to 197 °C.

`COc1cc2ncnc(Nc3ccc(F)c(Cl)c3)c2cc1OCCC1OCCO1` gave a melting point of 167 to 168 °C.

On to `C=CCC(F)(F)C(=O)C(Cc1ccccc1)NC(=O)c1ccccc1` (configuration not stated), for which the melting point is 98 °C.

`CCCCNC(=O)Nc1ccccc1C(=O)NC1CCN(C(c2ccccc2)c2ccccc2)CC1` gave a melting point of 204 to 206 °C.

Regarding `CCCc1c(OCc2cccc(C(=O)OCC)c2OCC)ccc(C(C)=O)c1O`, the melting point is 59 to 62 °C.

Molecule `CC1(C)OC(C=Cc2cccc(C#N)c2)=CC1=O` registered a melting point of 155 to 157 °C.

On to `O=C(O)CCC(NC(=O)c1ccc(-c2ccccc2OC2OC(CO)C(O)C(O)C2O)cc1)C(=O)O` (configuration not stated), for which the melting point lay within 118 to 121 °C.

Molecule `O=CN1CCC2=C(CCCC2)C1Cc1ccc(O)cc1` (configuration not stated) displayed a melting point of 154 to 156 °C.

The molecule `N#CN=C(Nc1cccnc1)NC1CCCC1` gave a melting point of 155 to 156 °C.

`CC(C)CNCc1cc2cc(NC(=O)c3ccc(C#CC4(O)CC4)cc3)ccc2n1C` yielded a melting point of 172 to 174 °C.

Regarding `CCc1c(-c2ccc(OCc3ccccc3)cc2)c2ccc3ccc(CO)c1n32`, the melting point lay in the range of 99 to 102 °C.

On to `Cc1oc(-c2ccccc2)nc1COc1ccc(C(=O)c2ccccc2O)cc1`, for which the melting point was 121 to 122 °C.

`O=C(COc1ccc2c(-c3ccccc3F)noc2c1Cl)NO` showed a melting point of 151 °C.

The molecule `CC(=O)Nc1cccc(Nc2ncnc3[nH]cc(C(=O)c4ccccc4C)c23)c1` registered a melting point greater than 300 °C.

Molecule `CCOCC1COc2cc3c(Cl)c(C(=O)OCC)cnc3cc2O1` (configuration not stated) gave a melting point of 106 to 108 °C.

Molecule `Cc1cc(OCC(O)CNC(C)(C)C)c2cc(C(N)=O)[nH]c2c1` (configuration not stated) showed a melting point of 213 to 214 °C.

With `CCC(=O)C1=C(O)CC(c2cccc(O)c2)CC1=O` (configuration not stated), the melting point lay in the range of 124 to 131 °C.

Molecule `CC(C)NC(=N)NC1=NC(=O)C(=O)N1c1ccc(Cl)c(Cl)c1` displayed a melting point of 244 °C.

`N#CCc1ccc(-c2ccc(C(CC3CCOCC3)c3ccc(S(=O)(=O)C4CC4)cc3)[nH]2)nc1` (configuration not stated) registered a melting point of 139 to 141 °C.

On to `CC1CS(=O)C(c2cccs2)=NO1` (configuration not stated), for which the melting point is 114 to 115 °C.

`COC(=O)C[C@H](Cc1ccccc1)NC(=O)OCC(C)C` came in with a melting point of 50 to 52 °C.

In turn, `CC1(C)OC(=S)Nc2ccc(-c3cccc(C#N)c3)cc21` came in with a melting point of 236 to 237 °C.

For the molecule `CCOC(=O)c1cc(CC)sc1Nc1cc(F)ccc1[N+](=O)[O-]`, the melting point lay in the range of 87 to 88 °C.

The molecule `NNC(=O)c1ccc(C(=O)O)cc1` showed a melting point of 235 to 236 °C.

In the case of `CCCCCCCCCCCCCCCCCCSC(=O)Nc1ccc(NC(=O)NS(=O)(=O)c2ccc3ccccc3c2)cc1`, the melting point was 193 °C.

The molecule `COc1cccc2c(Nc3ccccc3C)c(C(=O)CCC(=O)O)cnc12` registered a melting point of 263 to 265 °C.

On to `Oc1ccc2c(NCCN3CCOCC3)noc2c1`, for which the melting point lay within 151 to 152 °C.

In turn, `O=c1c2cc(Cl)ccc2nc(C(S)c2ncnc3[nH]cnc23)n1-c1ccccc1Cl` (configuration not stated) returned a melting point of 237 to 238 °C.

Molecule `C=CCSc1ccc(Oc2cccc(C)c2)nn1` had a melting point of 48 to 50 °C.

Regarding `CCCCn1cnc2c(SCc3ccc4nsc(Br)c4c3)ncnc21`, the melting point was in the range of 118 to 119 °C.

Take `NS(=O)(=O)c1ccc(-c2c(CC(O)c3ccc(Cl)cc3)noc2-c2ccccc2)cc1` (configuration not stated): the melting point lay in the range of 165 to 167 °C.

`Cc1nc2ccccc2nc1C(=O)OCCO` registered a melting point of 146 to 148 °C.

The molecule `Cc1nccn1-c1cc2[nH]c(=O)c(=O)n(O)c2cc1C(F)(F)F` displayed a melting point greater than 300 °C.

On to `CCOC(=O)Cc1ccc(C(=O)CN2CCN(c3ccncc3)CC2)cc1`, for which the melting point fell in the range of 122 to 124 °C.

Turning to `CCOC1CCCC(C2NC(=O)C2C(C)O[Si](C)(C)C(C)(C)C)C1O` (configuration not stated), the melting point fell in the range of 136 to 138 °C.

In the case of `COc1c([N+](=O)[O-])cc(C(C)(C)C)cc1[N+](=O)[O-]`, the melting point is greater than 75 °C.

In turn, `CN(C)C(=S)Oc1ccc(C(=O)c2ccccc2C#N)cc1` registered a melting point of 138 °C.

The molecule `COc1ccc(Cn2c(=O)c3ccc(Cl)cc3n(CCCCBr)c2=O)cc1` had a melting point of 107 to 109 °C.

Regarding `O=P(O)(c1ccccc1)c1ccc(S(=O)(=O)c2ccccc2)cc1`, the melting point is 220 to 224 °C.

In the case of `CCC(=CCn1oc(=O)[nH]c1=O)c1ccc2c(Cc3ccccc3)c(CC)oc2c1`, the melting point was in the range of 118 to 120 °C.

In turn, `CCOC(=O)CNC(=O)c1c(Cl)c2cc(Oc3ccc(C(F)(F)F)cc3)ccc2n1-c1ccc(OC(C)C)cc1` displayed a melting point of 80 to 81 °C.

`Cn1cc(C(=O)O)c(=O)c2sc(-c3ccccc3)cc21` returned a melting point of 290 to 292 °C.

`CC1Sc2c(C(=O)O)c(=O)c3cc(F)c(N4CCNCC4)cc3n21` (configuration not stated) returned a melting point of 225 to 227 °C.

Regarding `COc1ccccc1N1CCN(CCCNC(=O)c2cccc3c(=O)c(C)c(-c4cccc5ccccc45)oc23)CC1`, the melting point lay within 134 to 138 °C.

Turning to `COc1cc(Nc2c(C#N)cnc3cc(-c4cccc(NC(C)=O)c4)ccc23)c(Cl)cc1Cl`, the melting point lay within 262 to 263 °C.

On to `COC(=O)[C@H]1CC[C@H](c2[nH]nc3c2C(=O)c2c(NC(=O)NN4CCOCC4)cccc2-3)CC1`, for which the melting point lay in the range of 259 to 261 °C.

For the molecule `O=C1CCC2=C(CCc3cc(F)ccc32)N1`, the melting point lay in the range of 223 to 224 °C.

Consider `Nc1ccccc1-c1ccc(Br)cc1N`, for which the melting point was in the range of 61 to 62 °C.

For `Cc1cc2cc(CN3CCCC3)cnc2cc1NC(=O)c1ccc(-c2ccccc2)c(F)c1`, the melting point lay within 167 to 170 °C.

In turn, `O=C1CCOc2cc(OCc3ccccc3)c(F)cc21` came in with a melting point of 155 to 156 °C.

`CC(=O)Nc1ccc(S(=O)(=O)CCCCNS(=O)(=O)c2ccc(C)cc2)cc1` yielded a melting point of 93 to 95 °C.

With `CCc1nc2ccc(Cl)cc2c(=O)n1CCCn1ccnc1`, the melting point is 147 to 149 °C.

Turning to `Cc1cc(C)c(NC(=O)N(Cc2ccccc2)CC2(c3ccccc3)CCCC2)c(C)c1`, the melting point lay in the range of 212 to 214 °C.

As for `O=S1(=O)NCN(C2CC2)c2cccc(Br)c21`, the melting point was 189 to 191 °C.

In turn, `CCCc1nc2c(N)nc3cc(OCCOCCNC(=O)OC(C)(C)C)ccc3c2s1` gave a melting point of 111 to 113 °C.

For `Nc1nc(=O)[nH]c2cccnc12`, the melting point is greater than 300 °C.

In the case of `CC(C)(C)OC(=O)N[C@@H]1C[C@H](C(=O)O)Nc2cc(Cl)cc(Cl)c21` (relative stereo), the melting point was in the range of 186 to 188 °C.

Molecule `C[C@@H]1O[C@](/C=C/C2CC2)(C(F)(F)F)c2cc(Cl)ccc2NC1=O` (relative stereo) registered a melting point of 171 to 172 °C.

Molecule `Cc1ccc2c(c1)nnn2C(=O)N1CCOCC1` came in with a melting point of 81 to 82 °C.

On to `Cc1nc2c(O)cccn2c(=O)c1CCN1CCC(c2noc3cc(F)ccc23)CC1`, for which the melting point turned out to be 288 °C.

Take `COc1c(C2CCN(CCCCNC(=O)c3ccc(-c4ccc(C#N)nc4)cc3)CC2)ccc2c1CCCC2`: the melting point lay in the range of 179 to 181 °C.

The molecule `CC(C)(CO)CNC(=O)c1n[nH]cc1NC(=O)c1ccccn1` came in with a melting point of 217 to 218 °C.

`NNC(=O)Cc1ccccc1S(N)(=O)=O` registered a melting point of 116 to 125 °C.

In the case of `CCCc1c(OCC#CCCCC(=O)O)ccc(C(C)=O)c1O`, the melting point was in the range of 84 to 86 °C.

In the case of `CN1CCC2(CC1)CNc1cc(Cl)ccc12`, the melting point was in the range of 172 to 173 °C.

Take `CCOC(=O)Cc1cc2c(s1)CCN(C(=O)[C@H](Cc1ccccc1)NC(=O)c1ccc(C(=N)N)cc1)C2`: the melting point is 173 to 175 °C.

Molecule `CCCCc1ncc(/C=C(\Cc2ccc(N(C)C)cc2)C(=O)O)n1Cc1ccccc1Cl` showed a melting point of 171 to 172 °C.

These data come from a melting point compilation (Tetko et al.; mined from patent text by program, amines drawn as free bases though some values may be those of a salt).
